Laboratory results taken from patent US20260317319A1, “NOVEL ERGOLINES AND METHODS OF TREATING MOOD DISORDERS” (Gilgamesh Pharma Inc., priority 2023, published 2026).
Like-named read-outs stand apart in the source and are kept apart here.

Key:
5-HT1B receptor = target: T1, 5-HT1B receptor (Homo sapiens, UniProt P28222); assay: cAMP accumulation functional assay at 5-HT1B; assay type: cell-based; details: for Emax: agonist, cAMP accumulation, max dose, read-out: 5-HT1B % Act @ Max Dose
T1 construct: expressed in transfected cells
In short: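 Stably transfected human 5-HT1B cells were incubated 60 min at room temperature, after which detection reagent was applied for another 60 min at RT. The read-out was cAMP accumulation, used as a measure of agonist activity.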

5-HT2A receptor [1] = target: T2, 5-HT2A receptor (Homo sapiens, UniProt P28223); assay: cell-based; assay type: cell-based; details: beta-arrestin recruitment; for EC50: PathHunter, read-out: 5-HT2A Arrestin EC50; for Emax: read-out: 5-HT2A Arrestin % Act @ Max Dose
In short: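 Agonist activity expressed as percent of maximal control ligand signal after vehicle subtraction, from chemiluminescence (RLU). Cells carry ProLink-tagged 5-HT2A plus β-arrestin fused to β-gal deletion mutant; ligand-driven arrestin binding restores β-galactosidase activity (PathHunter). Cells pre-incubated at 37° C.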

5-HT2A receptor [2] = target: T2, 5-HT2A receptor; assay: cell-based; assay type: cell-based; design: expressed in transfected cells; host or cells: HEK293, stably transfected; details: for Emax: HEK293, agonist, HEK293, max dose, read-out: 5-HT2A % Act @ Max Dose
In short: (§1)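 FLIPR Tetra fluorescence read-out of calcium flux after compound addition. Receptor-expressing stable lines were used (HEK293 for 2A/2B; CHO with Gα15 for 1A), dye-loaded with Fluo-4 Direct and 2.5 mM final probenecid, 50 min at 37 °C.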

in vitro [3] = assay type: in vitro ADME, mouse
From the text: MLM Stability Pooled MLM from male CD-1 mice (BIOIVT M00501) were used.

5-HT2B receptor = target: T3, 5-HT2B receptor (Homo sapiens, UniProt P41595); assay: cell-based; assay type: cell-based; details: for Emax: HEK293, agonist, read-out: 5-HT2B % Act @ Max Dose
T3 construct: expressed in transfected cells; host or cells: HEK293, stably transfected
In short: as §1

in vitro [4] = assay type: in vitro ADME, human
in vitro [5] = assay type: in vitro ADME, rat
From the text: RLM Stability Pooled RLM from male Sprague-Dawley rats (Xenotech R1000) were used.

5-HT1A receptor = target: T4, 5-HT1A receptor (Homo sapiens, UniProt P08908); assay: cell-based; details: agonist, Ca2+ flux; for Emax: CHO, CHO cells with Gα15, max dose, read-out: 5-HT1A % Act @ Max Dose
T4 construct: expressed in transfected cells; host or cells: CHO cells, stably transfected
T4 sequence (P08908 1-422): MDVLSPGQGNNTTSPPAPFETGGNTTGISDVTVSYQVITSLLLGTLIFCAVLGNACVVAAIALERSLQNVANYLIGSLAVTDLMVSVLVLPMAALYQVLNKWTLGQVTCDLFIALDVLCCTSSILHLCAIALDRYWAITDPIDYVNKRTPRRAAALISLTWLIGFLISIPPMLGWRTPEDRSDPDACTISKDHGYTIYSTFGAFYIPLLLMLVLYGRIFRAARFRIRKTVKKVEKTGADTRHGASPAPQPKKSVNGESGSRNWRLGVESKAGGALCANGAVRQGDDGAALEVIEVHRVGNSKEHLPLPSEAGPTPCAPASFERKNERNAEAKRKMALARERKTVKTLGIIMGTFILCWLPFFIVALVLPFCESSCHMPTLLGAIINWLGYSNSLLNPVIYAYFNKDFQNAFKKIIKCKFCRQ
In short: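 Using HEK293 lines for the 5-HT2 subtypes and Gα15-coupled CHO cells for 5-HT1A, compounds were tested as agonists. Fluorescent Ca2+ signal followed dye loading (Fluo-4 Direct, 2.5 mM final probenecid, 50 min, 37 °C).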

5-HT2A receptor [6] = target: T2, 5-HT2A receptor; assay: biochemical; assay type: binding; design: expressed in transfected cells; host or cells: HEK293, stably transfected; details: [3H]ketanserin 1 nM; HEK293 stable cell line; 1 h, 25 °C
In short: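 Values reflect [^3H]ketanserin binding competition. Assay conditions were adapted from the literature.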

[7] = MLM (male CD-1) 0.50 mg/mL, NADPH 1 mM, 1 μM compound, pH 7.4, 37° C., 60 min
[8] = HLM 0.50 mg/mL, NADPH 1 mM, 1 μM compound, pH 7.4, 37° C., 60 min
[9] = RLM (male Sprague-Dawley) 0.50 mg/mL, NADPH 1 mM, 1 μM compound, pH 7.4, 37° C., 60 min

T1 sequence (P28222 whole entry): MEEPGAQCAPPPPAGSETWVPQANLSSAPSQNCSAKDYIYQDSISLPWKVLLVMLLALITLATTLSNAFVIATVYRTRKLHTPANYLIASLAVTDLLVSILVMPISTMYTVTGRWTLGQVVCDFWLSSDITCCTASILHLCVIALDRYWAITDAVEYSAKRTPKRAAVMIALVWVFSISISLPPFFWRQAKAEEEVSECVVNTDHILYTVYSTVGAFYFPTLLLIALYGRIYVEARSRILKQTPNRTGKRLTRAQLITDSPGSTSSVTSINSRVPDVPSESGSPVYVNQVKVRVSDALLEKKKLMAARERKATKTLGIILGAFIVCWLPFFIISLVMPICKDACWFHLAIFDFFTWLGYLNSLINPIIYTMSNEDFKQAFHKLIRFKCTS
T2 sequence (P28223 whole entry, the tested form may be a part): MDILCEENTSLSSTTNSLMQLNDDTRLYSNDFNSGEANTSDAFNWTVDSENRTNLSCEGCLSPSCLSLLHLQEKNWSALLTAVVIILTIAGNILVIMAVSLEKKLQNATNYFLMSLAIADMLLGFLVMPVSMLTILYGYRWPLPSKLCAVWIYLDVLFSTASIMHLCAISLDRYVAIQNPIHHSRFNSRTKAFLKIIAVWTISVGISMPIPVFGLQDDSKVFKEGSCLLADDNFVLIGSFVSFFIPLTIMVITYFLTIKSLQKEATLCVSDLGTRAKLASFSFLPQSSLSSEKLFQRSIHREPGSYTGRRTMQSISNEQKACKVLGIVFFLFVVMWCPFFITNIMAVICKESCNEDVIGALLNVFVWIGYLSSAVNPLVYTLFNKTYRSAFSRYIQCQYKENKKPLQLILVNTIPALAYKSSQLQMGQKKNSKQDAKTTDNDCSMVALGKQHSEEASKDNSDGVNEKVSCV
T3 sequence (P41595 whole entry): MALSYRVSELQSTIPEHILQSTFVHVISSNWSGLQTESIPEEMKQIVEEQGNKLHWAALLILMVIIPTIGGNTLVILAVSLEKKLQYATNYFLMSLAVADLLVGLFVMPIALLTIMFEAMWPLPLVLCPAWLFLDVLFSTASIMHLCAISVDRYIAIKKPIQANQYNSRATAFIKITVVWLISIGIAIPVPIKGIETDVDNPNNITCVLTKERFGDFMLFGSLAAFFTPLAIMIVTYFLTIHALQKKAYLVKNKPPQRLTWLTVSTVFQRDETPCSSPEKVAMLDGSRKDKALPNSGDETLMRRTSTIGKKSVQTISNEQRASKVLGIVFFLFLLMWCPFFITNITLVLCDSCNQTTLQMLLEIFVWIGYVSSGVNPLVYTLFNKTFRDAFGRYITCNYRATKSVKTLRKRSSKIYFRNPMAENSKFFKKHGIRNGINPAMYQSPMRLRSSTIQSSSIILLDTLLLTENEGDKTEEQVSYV

CCN(CC)C(=O)[C@@H]1C=C2c3cccc4[nH]cc(c34)C[C@H]2N(Cc2cccc(OC)c2)C1 [Compound 18, (6aR,9R)—N,N-diethyl-7-(3-methoxybenzyl)-4,6,6a,7,8,9-hexahydroindolo[4,3-fg]quinoline-9-carboxamide]
Emax (5-HT1B receptor): 83.3% | EC50 (5-HT2A receptor [1]; agonist): 0.00427 µM | Emax (5-HT2A receptor [1]; agonist, max dose): 89.6% | Emax (5-HT2A receptor [2]; Ca2+ flux): 61.1% | Intrinsic clearance (Clint) (in vitro [3]; [7]): 523.7 µL/min/mg | half-life (t1/2) (in vitro [3]; [7]): 2.6 min | Emax (5-HT2B receptor; Ca2+ flux, HEK293, max dose): 4.69% | Intrinsic clearance (Clint) (in vitro [4]; [8]): 101.7 µL/min/mg | half-life (t1/2) (in vitro [4]; [8]): 13.6 min | Intrinsic clearance (Clint) (in vitro [5]; [9]): 262.8 µL/min/mg | half-life (t1/2) (in vitro [5]; [9]): 5.3 min | Emax (5-HT1A receptor): 28.9%

CCCN1C[C@H](C(=O)N[C@H](C)CC)C=C2c3cccc4[nH]cc(c34)C[C@H]21 [Compound 3, (6aR,9R)—N—((R)-sec-butyl)-7-propyl-4,6,6a,7,8,9-hexahydroindolo[4,3-fg]quinoline-9-carboxamide]
Emax (5-HT1B receptor): 98.7% | selectivity for 5-HT2A over 5-HT1B (5-HT1B receptor; functional, compared to the N-methyl prototype LSD): greater selectivity for 5-HT2A over 5-HT1B | Emax (5-HT2A receptor [1]; agonist, max dose): 110% | 5-HT2A arrestin agonist class (5-HT2A receptor [1]): full agonists | Emax (5-HT2A receptor [2]; Ca2+ flux): 103% | selectivity for 5-HT2A over adrenergic and dopamine receptors (5-HT2A receptor [2]; versus Alpha1A, Alpha2A, D1, D2): exceptional selectivity | stability in MLM (in vitro [3]): much lower stability (higher clearance) | half-life (t1/2) (in vitro [3]; [7]): 1.6 min | Emax (5-HT2B receptor; Ca2+ flux, HEK293, max dose): 94.1% | selectivity for 5-HT2A over 5-HT2B (5-HT2B receptor; functional, compared to closest N-methyl counterparts Int8, Int11, Int17): more selective for 5-HT2A over 5-HT2B | stability in HLM (in vitro [4]): much lower stability (higher clearance) | half-life (t1/2) (in vitro [4]; [8]): 4.2 min | stability in RLM (in vitro [5]): much lower stability (higher clearance) | half-life (t1/2) (in vitro [5]; [9]): 4.4 min | Emax (5-HT1A receptor): 108%

CCN(CC)C(=O)[C@@H]1C=C2c3cccc4[nH]cc(c34)C[C@H]2N(Cc2ccc(OC)cc2)C1 [Compound 19, (6aR,9R)—N,N-diethyl-7-(4-methoxybenzyl)-4,6,6a,7,8,9-hexahydroindolo[4,3-fg]quinoline-9-carboxamide]
Emax (5-HT1B receptor): 71.1% | EC50 (5-HT2A receptor [1]; agonist): 0.0135 µM | Emax (5-HT2A receptor [1]; agonist, max dose): 42.3% | Emax (5-HT2A receptor [2]; Ca2+ flux): 70.5% | Intrinsic clearance (Clint) (in vitro [3]; [7]): 192.7 µL/min/mg | half-life (t1/2) (in vitro [3]; [7]): 7.2 min | Emax (5-HT2B receptor; Ca2+ flux, HEK293, max dose): 2.44% | Intrinsic clearance (Clint) (in vitro [4]; [8]): 82.7 µL/min/mg | half-life (t1/2) (in vitro [4]; [8]): 16.8 min | Intrinsic clearance (Clint) (in vitro [5]; [9]): 139.0 µL/min/mg | half-life (t1/2) (in vitro [5]; [9]): 10.0 min | Emax (5-HT1A receptor): -0.65%

CCCN1C[C@H](C(=O)N(CC)CC)C=C2c3cccc4[nH]cc(c34)C[C@H]21 [Compound 1, (6aR,9R)—N,N-diethyl-7-propyl-4,6,6a,7,8,9-hexahydroindolo[4,3-fg]quinoline-9-carboxamide]
Emax (5-HT1B receptor): 96.6% | Emax (5-HT2A receptor [1]; agonist, max dose): 129% | 5-HT2A arrestin agonist class (5-HT2A receptor [1]): full agonists | Emax (5-HT2A receptor [2]; Ca2+ flux): 97% | stability in MLM (in vitro [3]): much lower stability (higher clearance) | half-life (t1/2) (in vitro [3]; [7]): 2.3 min | Emax (5-HT2B receptor; Ca2+ flux, HEK293, max dose): 104% | stability in HLM (in vitro [4]): much lower stability (higher clearance) | half-life (t1/2) (in vitro [4]; [8]): 15.1 min | stability in RLM (in vitro [5]): much lower stability (higher clearance) | half-life (t1/2) (in vitro [5]; [9]): 16.2 min | Emax (5-HT1A receptor): 95.6%

CCN(C)C(=O)[C@@H]1C=C2c3cccc4[nH]cc(c34)C[C@H]2N(Cc2ccccc2)C1 [Compound 85, (6aR,9R)-7-benzyl-N-ethyl-N-methyl-4,6,6a,7,8,9-hexahydroindolo[4,3-fg]quinoline-9-carboxamide]
Emax (5-HT2A receptor [2]; Ca2+ flux): 60.6% | EC50 (5-HT2A receptor [2]; agonist, Ca2+ flux, HEK293): 0.5 µM | microsomal CLint (in vitro [3]; mouse, microsomes, MLM (male CD-1) 0.50 mg/mL, NADPH 1 mM, 1 μM compound, pH 7.4, 37° C., 60 min, read-out: Intrinsic clearance (Clint)): 184 µL/min/mg | half-life (in vitro [3]; mouse, microsomes, MLM (male CD-1) 0.50 mg/mL, NADPH 1 mM, 1 μM compound, pH 7.4, 37° C., 60 min, read-out: half-life (t1/2)): 7.5 min | Emax (5-HT2B receptor; Ca2+ flux, HEK293, max dose): 3.73% | EC50 (5-HT2B receptor; agonist, Ca2+ flux, HEK293): > 10 µM | microsomal CLint (in vitro [4]; human, microsomes, HLM 0.50 mg/mL, NADPH 1 mM, 1 μM compound, pH 7.4, 37° C., 60 min, read-out: Intrinsic clearance (Clint)): 95 µL/min/mg | half-life (in vitro [4]; human, microsomes, HLM 0.50 mg/mL, NADPH 1 mM, 1 μM compound, pH 7.4, 37° C., 60 min, read-out: half-life (t1/2)): 14.6 min | microsomal CLint (in vitro [5]; rat, microsomes, RLM (male Sprague-Dawley) 0.50 mg/mL, NADPH 1 mM, 1 μM compound, pH 7.4, 37° C., 60 min, read-out: Intrinsic clearance (Clint)): 131 µL/min/mg | half-life (in vitro [5]; rat, microsomes, RLM (male Sprague-Dawley) 0.50 mg/mL, NADPH 1 mM, 1 μM compound, pH 7.4, 37° C., 60 min, read-out: half-life (t1/2)): 10.5 min | Ki (5-HT2A receptor [6]): 0.00127 µM | Emax (5-HT1A receptor): 36.8% | EC50 (5-HT1A receptor; CHO cells with Gα15): > 10 µM

CC[C@@H](C)NC(=O)[C@@H]1C=C2c3cccc4[nH]cc(c34)C[C@H]2N(C)C1 [Int8]
Emax (5-HT2A receptor [1]; agonist, max dose): 46.1% | 5-HT2A arrestin agonist class (5-HT2A receptor [1]): partial agonists | Emax (5-HT2A receptor [2]; Ca2+ flux): 96.2% | half-life (t1/2) (in vitro [3]; mouse, microsomes, pH 7.4): 39.9 min | Emax (5-HT2B receptor; Ca2+ flux, HEK293, max dose): 17.7% | half-life (t1/2) (in vitro [4]; human, microsomes, pH 7.4): 64.9 min | half-life (t1/2) (in vitro [5]; rat, microsomes, pH 7.4): 99.5 min | Emax (5-HT1A receptor): 90.2%

CCN(CC)C(=O)[C@@H]1C=C2c3cccc4[nH]cc(c34)C[C@H]2N(CCc2ccccc2OC)C1 [Compound 11, (6aR,9R)—N,N-diethyl-7-(2-methoxyphenethyl)-4,6,6,7,8,9-hexahydroindolo[4,3-fg]quinoline-9-carboxamide]
5-HT2A Arrestin % Act @ Max Dose (5-HT2A receptor [1]; agonist, max dose): 54.26% | stability in MLM (in vitro [3]): much lower stability (higher clearance) | Intrinsic clearance (Clint) (in vitro [3]; [7]): 1512.047 µL/min/mg | half-life (t1/2) (in vitro [3]; [7]): 0.917 min | 5-HT2B % Act @ Max Dose (5-HT2B receptor; agonist, Ca2+ flux, HEK293, max dose): 2.5% | stability in HLM (in vitro [4]): much lower stability (higher clearance) | Intrinsic clearance (Clint) (in vitro [4]; [8]): 584.336 µL/min/mg | half-life (t1/2) (in vitro [4]; [8]): 2.372 min | stability in RLM (in vitro [5]): much lower stability (higher clearance) | Intrinsic clearance (Clint) (in vitro [5]; [9]): 1195.423 µL/min/mg | half-life (t1/2) (in vitro [5]; [9]): 1.159 min

C=CCN1C[C@H](C(=O)N[C@H](C)CC)C=C2c3cccc4[nH]cc(c34)C[C@H]21 [Compound 8, (6aR,9R)-7-allyl-N—((R)-sec-butyl)-4,6,6a,7,8,9-hexahydroindolo[4,3-fg]quinoline-9-carboxamide]
Emax (5-HT2A receptor [1]; agonist, max dose): 112% | 5-HT2A arrestin agonist class (5-HT2A receptor [1]): full agonists | Emax (5-HT2A receptor [2]; Ca2+ flux): 99.2% | stability in MLM (in vitro [3]): much lower stability (higher clearance) | half-life (t1/2) (in vitro [3]; [7]): 3.7 min | Emax (5-HT2B receptor; Ca2+ flux, HEK293, max dose): 91.6% | stability in HLM (in vitro [4]): much lower stability (higher clearance) | half-life (t1/2) (in vitro [4]; [8]): 7.9 min | stability in RLM (in vitro [5]): much lower stability (higher clearance) | half-life (t1/2) (in vitro [5]; [9]): 7.7 min | Emax (5-HT1A receptor): 116%
